The test system of one series is FRT cells. Put plainly: Cytotoxicity by Alamar Blue assay in FRT cells. The series is classed as cell-based, rat. Particulars: for cytotoxicity of 6k / 12: 10 μM, 8 h; for cytotoxicity at up to 100 μM: 1 or 24 h.
In series [1] the test system is CFTR activity at the ocular surface. The experiment in a line: Ocular surface potential difference (PD) in living mice. Particulars: wild-type mice; for change in ocular surface PD, in words: 1-10 μM. The series is classed as in vivo, mouse. On the procedure: (§1) Open-circuit transepithelial PD were measured continuously in anesthetized mice in response to serial perfusions of different solutions over the ocular surface, as described (21). Mice were anesthetized with Avertin (2,2,2-tribromoethanol, 125 mg/kg intraperitoneal, Sigma-Aldrich, St. Louis, Mo., USA), and core temperature was maintained at 37° C. using a heating pad. Eyes were oriented with the cornea and conjunctiva facing upward and exposed by retracting the eyelid with cross-action forceps. Solutions were isosmolar (320±10 mOsM; compositions provided in ref. 21) and contained 10μ[…] Qindomethacin to prevent CFTR activation by prostaglandins. The ocular surface was perfused at 6 mL/min through plastic tubing using a multireservoir gravity pinch-valve system (ALA Scientific, Westbury, N.Y., USA) and variable-flow peristaltic pump (medium flow model; Fisher Scientific, Fair Lawn, N.J., USA). A probe catheter was fixed 1 mm above the cornea using a micropositioner and a suction cannula was positioned 3 mm from the orbit. The measuring electrode was in contact to the perfusion catheter and connected to a high-impedance voltmeter (IsoMilivolt Meter; WPI). The reference electrode was grounded via a winged 21-gauge needle filled with isosmolar saline, and inserted subcutaneously in the abdomen. Measuring and reference electrodes consisted of Ag/AgCl with 3 M KCl agar bridges.
An open-circuit potential difference (PD) method developed in our lab was used to evaluate compound activity at the ocular surface in vivo, as depicted in FIG. 3A (21). Cl^− channel function was quantified by measuring PD during continuous perfusion of the ocular surface with a series of solutions that imposed a transepithelial Cl^− gradient and contained various channel agonists and/or inhibitors. The ocular surface was first perfused with isosmolar saline to record the baseline PD. Amiloride was then added to the perfusate, followed by exchange to a low Cl^− solution in which Cl^− with an impermeant anion, gluconate. These maneuvers allow for direct visualization of CFTR activation in response to addition of candidate CFTR activators.
as §1, with “Ocular surface potential difference measurements. Open-circuit” for “Open-circuit”, “indomethacin” for “Qindomethacin”, “Measuring and reference electrodes consisted of Ag/AgCl with 3 M KCl agar bridges.” left out

A further series deals with mice. The experiment in a line: Tear secretion / tear volume in mice (phenol red thread). Conditions: for duration of increased tear secretion / increase in tear fluid secretion / tear secretion, in words: single topical dose, wild-type mice; for tear secretion / tear volume in CF mice: CF mice lacking functional CFTR. The series is classed as in vivo, mouse. On the procedure:
To measure unstimulated tear production, phenol red threads (Zone-Quick, Oasis Medical, Glendora, Calif., USA) were placed for 10 s in the lateral canthi of isofluorane-anesthetized mice using jewelers' forceps. Tear volume was measured as the length of thread wetting, as visualized under a dissecting microscope. Serial measurements were used to evaluate compound pharmacodynamics after application of 2-μL drops of compound formulations (50-100 μM compound in PBS containing 0.5% polysorbate and 0.5% DMSO) comparing to vehicle.
Tear secretion. To measure unstimulated tear production, phenol red threads (Zone-Quick, Oasis Medical, Glendora, Calif., USA) were placed for 10 s in the lateral canthi of isofluorane-anesthetized mice using jewelers' forceps. Tear volume was measured as the length of thread wetting, as visualized under a dissecting microscope. Serial measurements were used to evaluate compound pharmacodynamics after application of 2-[…]L drops of compound formulations (50-100 μM compound in PBS containing 0.5% polysorbate and 0.5% DMSO) comparing to vehicle.
Tear volume. Tear volume was measured using phenol red threads (Zone-Quick, Oasis Medical, Glendora, Calif.) as described. Threads were placed for 10 s in the lateral canthi of isofluorane-anesthetized mice using jewelers' forceps. Tear volume was determined from the length of thread wetting as visualized under a dissecting microscope. Serial measurements were done to evaluate compound pharmacodynamics after topical application of a single, 2.5-μL drop of ophthalmic formulation containing 0-100 μM of 1 or 12 in Ringer's solution with 0.3% carboxymethylcellulose (high viscosity, VWR, Radnor, Pa.), 0.015% benzalkonium chloride preservative, and 1% DMSO. Both eyes in each mouse received the same treatment to control for potential contralateral effects of a given treatment.

“Also recorded” adds a separate entry of the source.

For `CCN(CC)c1nc(Nc2ccc3ncsc3c2)nc(OC(C(F)(F)F)C(F)(F)F)n1` [6k, N′-(1,3-Benzothiazol-6-yl)-N,N-diethyl-6-[(1,1,1,3,3,3-hexafluoropropan-2-yl)oxy]-1,3,5-triazine-2,4-diamine], the “cytotoxicity of 6k / 12” value in the series on FRT cells is given as “did not produce significant toxicity”.
Consider `Nc1ccc([N+](=O)[O-])cc1-c1nc2ccccc2n(Cc2ccccc2)c1=O` [CFTRact-J027, 3-(2-amino-5-nitrophenyl)-1-benzylquinoxalin-2(1H)-one], for which, in series [1], the “change in ocular surface PD, in words” value is listed as “large hyperpolarizations”. Also, the “cytotoxicity at 20 μM” value in the series with FRT cells (20 μM) was “did not show cytotoxicity”. Besides, in the series with FRT cells (25 μM), the “cytotoxicity at 25 μM” value was “did not show significant in vitro cytotoxicity” and the “non-cytotoxic concentration relative to EC50 for CFTR activation” value is on record as more than 100 fold. In addition, in the series with FRT cells, the “cytotoxicity at up to 100 μM” value was “no appreciable in vitro cytotoxicity”. Further, in the series on mice, the “duration of increased tear secretion” value is “at least four” and the “increase in tear fluid secretion” value is given as “approximately two-fold”.
On to `CCN(CC)c1nc(Nc2ccccc2)nc(OC(C(F)(F)F)C(F)(F)F)n1` [CFTRact-K089, N,N-Diethyl-6-[(1,1,1,3,3,3-hexafluoropropan-2-yl)oxy]-N′-phenyl-1,3,5-triazine-2,4-diamine], for which, in series [1], the “hyperpolarization in ocular surface potential difference” value was approximately 8.5 mV and the “change in ocular surface PD, in words” value is listed as “large hyperpolarizations”. Moreover, in the series with FRT cells, the “cytotoxicity at up to 100 μM” value was “no appreciable in vitro cytotoxicity”. In addition, in the series with mice, the “tear secretion / tear volume in CF mice” value is given as “no effect”; the “duration of increased tear secretion” value is “four and at least four”; the “increase in tear fluid secretion” value is reported as “approximately two-fold”; the “tear secretion, in words” value is “doubled basal tear secretion”.
With `CC(C)(C)c1cc(C(C)(C)C)c(NC(=O)c2c[nH]c3ccccc3c2=O)cc1O` [VX-770, reference compound], the “change in ocular surface PD, in words” value in series [1] was “minimal changes in ocular surface PD”. Further, in the series on mice, the “tear secretion, in words” value is “little tear secretion”.
For `CNc1nc(Nc2ccccc2)nc(OCC(F)(F)C(F)F)n1` [compound 12, N-methyl-N′-phenyl-6-(2,2,3,3-tetrafluoropropoxy)-1,3,5-triazine-2,4-diamine], in the series on FRT cells, the “cytotoxicity of 6k / 12” value is “non-toxic; also recorded: did not produce significant toxicity”. Also, the “duration of sustained effect on tear volume” value with mice (25 pmol, single dose) was 8 h. Moreover, in the series on mice (100 μM (250 pmol), single dose), the “duration of sustained increase in tear volume” value is 8 h and the “time of return of tear volume to baseline” value was 12 to 24 h. In addition, in the series on mice, the “tear secretion / tear volume in CF mice” value is recorded as “without effect; also recorded: did not increase tear volume”. Moreover, in the series on mice (doses down to 25 pmol), the “time of maximal tear volume” value was in the range of 1 to 3 h. Further, the “duration of sustained in vivo efficacy” value in the series on mice (mice) was “at least 8 hours”. In the series on mice (single-dose dose-response), the “lowest dose with similar activity on tear volume” value is 25 pmol.

For the origin of these results see patent US11230535B2, “CFTR regulators and methods of use thereof” (THE REGENTS OF THE UNIVERSITY OF CALIFORNIA, priority 2015, dated 2022).
